Measurements published in patent publication US20260035359A1, “HERBICIDAL IMIDAZOLE COMPOUNDS” (SYNGENTA CROP PROTECTION AG, priority 2022, published 2026).

Tests used:
Type in all cases: in vivo
Setaria faberi (SETFA) [1] = assay: Pre-emergence herbicidal glasshouse test; conditions: 250 g/ha, sprayed after one day cultivation, evaluated after 13 days
Protocol: (§1) Seeds of a variety of test species are sown in standard soil in pots Amaranthus pa/meri (AMAPA), Amaranthus retoflexus (AMARE), Echinochloa crus-gali (ECHCG), Ipomoea hederacea (IPOHE), Setaria faberi (SETFA). After cultivation for one day (pre-emergence) or after 8 days cultivation (post-emergence) under controlled conditions in a glasshouse (at 24/16° C., day/night; 14 hours light; 65% humidity), the plants are sprayed with an aqueous spray solution derived from the formulation of the technical active ingredient in acetone/water (50:50) solution containing 0.5% Tween 20 (polyoxyethelyene sorbitan monolaurate, CAS RN 9005-64-5). Compounds are applied at 250 g/ha unless otherwise stated. The test plants are then grown in a glasshouse under controlled conditions in a glasshouse (at 24/16° C., day/night; 14 hours light; 65% humidity) and watered twice daily. After 13 days for pre and post-emergence, the test is evaluated for the percentage damage caused to the plant. The biological activities are shown in the following table on a five-point scale (5=81-100%; 4=61-80%; 3=41-60%; 2=21-40%; 1=0-20%).

[2] = system: Amaranthus retoflexus (AMARE); assay: Pre-emergence herbicidal glasshouse test; conditions: 250 g/ha, sprayed after one day cultivation, evaluated after 13 days
Protocol: as §1

[3] = system: Amaranthus pa/meri (AMAPA); assay: Pre-emergence herbicidal glasshouse test; conditions: 250 g/ha, sprayed after one day cultivation, evaluated after 13 days
Protocol: as §1

[4] = system: Echinochloa crus-gali (ECHCG); assay: Pre-emergence herbicidal glasshouse test; conditions: 250 g/ha, sprayed after one day cultivation, evaluated after 13 days
Protocol: as §1

[5] = system: Ipomoea hederacea (IPOHE); assay: Pre-emergence herbicidal glasshouse test; conditions: 250 g/ha, sprayed after one day cultivation, evaluated after 13 days
Protocol: as §1

Setaria faberi (SETFA) [6] = assay: Post-emergence herbicidal glasshouse test; conditions: 250 g/ha, sprayed after 8 days cultivation, evaluated after 13 days
Protocol: as §1

[7] = system: Amaranthus retoflexus (AMARE); assay: Post-emergence herbicidal glasshouse test; conditions: 250 g/ha, sprayed after 8 days cultivation, evaluated after 13 days
Protocol: as §1

[8] = system: Amaranthus pa/meri (AMAPA); assay: Post-emergence herbicidal glasshouse test; conditions: 250 g/ha, sprayed after 8 days cultivation, evaluated after 13 days
Protocol: as §1

[9] = system: Echinochloa crus-gali (ECHCG); assay: Post-emergence herbicidal glasshouse test; conditions: 250 g/ha, sprayed after 8 days cultivation, evaluated after 13 days
Protocol: as §1

[10] = system: Ipomoea hederacea (IPOHE); assay: Post-emergence herbicidal glasshouse test; conditions: 250 g/ha, sprayed after 8 days cultivation, evaluated after 13 days
Protocol: as §1

| Compound | percentage damage caused to the plant, SETFA (Setaria faberi (SETFA) [1]) | percentage damage caused to the plant, AMARE [2] | percentage damage caused to the plant, AMAPA [3] | percentage damage caused to the plant, ECHCG [4] | percentage damage caused to the plant, IPOHE [5] | percentage damage caused to the plant, SETFA (Setaria faberi (SETFA) [6]) | percentage damage caused to the plant, AMARE [7] | percentage damage caused to the plant, AMAPA [8] | percentage damage caused to the plant, ECHCG [9] | percentage damage caused to the plant, IPOHE [10] |
| --- | --- | --- | --- | --- | --- | --- | --- | --- | --- | --- |
| FC(F)(F)c1cn(Cc2ncc(Cl)cn2)c(CCn2ccc(C(F)(F)F)n2)n1 [Compound 1.033] | 4 (4=61-80%) | 5 (5=81-100%) | 5 (5=81-100%) | 3 (3=41-60%) | 5 (5=81-100%) | 3 (3=41-60%) | 4 (4=61-80%) | 3 (3=41-60%) | 3 (3=41-60%) | 4 (4=61-80%) |
| N#Cc1cn(Cc2ncc(Cl)cn2)c(CC2CCOC2)n1 (stereo not shown) [Compound 1.073, 1-[(5-chloropyrimidin-2-yl)methyl]-2-(tetrahydrofuran-3-ylmethyl)imidazole-4-carbonitrile] | 1 (1=0-20%) | 2 (2=21-40%) | 2 (2=21-40%) | 1 (1=0-20%) | 2 (2=21-40%) | 1 (1=0-20%) | 2 (2=21-40%) | 2 (2=21-40%) | 1 (1=0-20%) | 3 (3=41-60%) |
| FC(F)c1nc(C(F)(F)F)cn1Cc1ncc(Cl)cn1 [Compound 1.070, 5-chloro-2-[[2-(difluoromethyl)-4-(trifluoromethyl)imidazol-1-yl]methyl]pyrimidine] | 1 (1=0-20%) | 5 (5=81-100%) | 5 (5=81-100%) | 1 (1=0-20%) | 3 (3=41-60%) | 1 (1=0-20%) | 1 (1=0-20%) | 1 (1=0-20%) | 1 (1=0-20%) | 2 (2=21-40%) |
| CCOCCc1nc(C(F)(F)F)cn1Cc1ncc(Cl)cn1 [Compound 1.038] | 5 (5=81-100%) | 5 (5=81-100%) | 5 (5=81-100%) | 5 (5=81-100%) | 5 (5=81-100%) | 3 (3=41-60%) | 4 (4=61-80%) | 3 (3=41-60%) | 3 (3=41-60%) | 4 (4=61-80%) |
| FC(F)(F)CCc1nc(C(F)(F)F)cn1Cc1ncc(Cl)cn1 [Compound 1.002, 5-chloro-2-[[4-(trifluoromethyl)-2-(3,3,3-trifluoropropyl)imidazol-1-yl]methyl]pyrimidine] | 5 (5=81-100%) | 5 (5=81-100%) | 5 (5=81-100%) | 5 (5=81-100%) | 5 (5=81-100%) | 5 (5=81-100%) | 5 (5=81-100%) | 5 (5=81-100%) | 5 (5=81-100%) | 5 (5=81-100%) |
| C#Cc1nc(C(F)(F)F)cn1Cc1ncc(Cl)cn1 [Compound 1.084] | 1 (1=0-20%) | 2 (2=21-40%) | 1 (1=0-20%) | 1 (1=0-20%) | 1 (1=0-20%) | 1 (1=0-20%) | 2 (2=21-40%) | 2 (2=21-40%) | 1 (1=0-20%) | 1 (1=0-20%) |
| FC(F)(F)CCCc1nc(C(F)(F)F)cn1Cc1ncc(Cl)cn1 [Compound 1.025] | 5 (5=81-100%) | 5 (5=81-100%) | 5 (5=81-100%) | 5 (5=81-100%) | 5 (5=81-100%) | 5 (5=81-100%) | 5 (5=81-100%) | 5 (5=81-100%) | 5 (5=81-100%) | 4 (4=61-80%) |
| OCCCc1nc(C(F)(F)F)cn1Cc1ncc(Cl)cn1 [Compound 1.008, 3-[1-[(5-chloropyrimidin-2-yl)methyl]-4-(trifluoromethyl)imidazol-2-yl]propan-1-ol] | 1 (1=0-20%) | 1 (1=0-20%) | 1 (1=0-20%) | 2 (2=21-40%) | 1 (1=0-20%) | 1 (1=0-20%) | 1 (1=0-20%) | 1 (1=0-20%) | 1 (1=0-20%) | 1 (1=0-20%) |
| FC(F)(F)c1cn(Cc2ncc(Cl)cn2)c(CCl)n1 [Compound 1.071, 5-chloro-2-[[2-(chloromethyl)-4-(trifluoromethyl)imidazol-1-yl]methyl]pyrimidine] | 1 (1=0-20%) | 3 (3=41-60%) | 2 (2=21-40%) | 1 (1=0-20%) | 1 (1=0-20%) | 1 (1=0-20%) | 1 (1=0-20%) | 1 (1=0-20%) | 1 (1=0-20%) | 1 (1=0-20%) |
| CC(C)(C#N)Cc1nc(C(F)(F)F)cn1Cc1ncc(Cl)cn1 [Compound 1.061] | 1 (1=0-20%) | 3 (3=41-60%) | 3 (3=41-60%) | 1 (1=0-20%) | 4 (4=61-80%) | 1 (1=0-20%) | 4 (4=61-80%) | 3 (3=41-60%) | 1 (1=0-20%) | 4 (4=61-80%) |
| FC(F)(F)CCCc1nc(Cl)c(Cl)n1Cc1ncc(Cl)cn1 [Compound 1.004, 5-chloro-2-[[4,5-dichloro-2-(4,4,4-trifluorobutyl)imidazol-1-yl]methyl]pyrimidine] | 4 (4=61-80%) | 5 (5=81-100%) | 5 (5=81-100%) | 3 (3=41-60%) | 2 (2=21-40%) | 4 (4=61-80%) | 4 (4=61-80%) | 4 (4=61-80%) | 3 (3=41-60%) | 3 (3=41-60%) |
| CCOCc1nc(C(F)(F)F)cn1Cc1ncc(Cl)cn1 [Compound 1.039] | 2 (2=21-40%) | 4 (4=61-80%) | 3 (3=41-60%) | 1 (1=0-20%) | 2 (2=21-40%) | 1 (1=0-20%) | 2 (2=21-40%) | 2 (2=21-40%) | 1 (1=0-20%) | 2 (2=21-40%) |
| COCc1nc(C(F)(F)F)cn1Cc1ncc(Cl)cn1 [Compound 1.023] | 1 (1=0-20%) | 2 (2=21-40%) | 2 (2=21-40%) | 1 (1=0-20%) | 1 (1=0-20%) | 1 (1=0-20%) | 1 (1=0-20%) | 1 (1=0-20%) | 1 (1=0-20%) | 2 (2=21-40%) |
